From article PMC7611821 (ACS synthetic biology, 2020)

Target: Ec-F1F0 (E. coli ATP synthase) (Escherichia coli, UniProt P0ABB0+P0ABB4)
Assay: NADH-driven ATP synthesis in proteoliposomes, luciferase luminescence
Assay type: biochemical
Settings: turnover only; 50 μM ADP, 20 mM Tris-PO4 pH 7.4, 5 mM MgCl2, 200 μM NADH, 20 °C

Ec-F1F0 (E. coli ATP synthase), sequence (P0ABB0 whole entry, looked up): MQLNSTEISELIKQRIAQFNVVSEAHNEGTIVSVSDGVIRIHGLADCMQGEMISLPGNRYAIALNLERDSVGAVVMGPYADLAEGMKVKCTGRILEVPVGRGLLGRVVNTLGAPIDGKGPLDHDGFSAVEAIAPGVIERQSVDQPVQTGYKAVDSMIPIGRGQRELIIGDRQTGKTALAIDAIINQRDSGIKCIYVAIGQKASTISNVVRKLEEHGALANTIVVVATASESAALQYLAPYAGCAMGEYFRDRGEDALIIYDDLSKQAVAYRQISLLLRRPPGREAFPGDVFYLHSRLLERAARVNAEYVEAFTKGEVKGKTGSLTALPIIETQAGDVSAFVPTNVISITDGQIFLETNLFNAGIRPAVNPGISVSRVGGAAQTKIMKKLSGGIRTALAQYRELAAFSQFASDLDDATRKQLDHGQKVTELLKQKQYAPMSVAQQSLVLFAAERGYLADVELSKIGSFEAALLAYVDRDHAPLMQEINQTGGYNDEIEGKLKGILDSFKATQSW
Ec-F1F0 (E. coli ATP synthase), sequence (P0ABB4 whole entry, looked up): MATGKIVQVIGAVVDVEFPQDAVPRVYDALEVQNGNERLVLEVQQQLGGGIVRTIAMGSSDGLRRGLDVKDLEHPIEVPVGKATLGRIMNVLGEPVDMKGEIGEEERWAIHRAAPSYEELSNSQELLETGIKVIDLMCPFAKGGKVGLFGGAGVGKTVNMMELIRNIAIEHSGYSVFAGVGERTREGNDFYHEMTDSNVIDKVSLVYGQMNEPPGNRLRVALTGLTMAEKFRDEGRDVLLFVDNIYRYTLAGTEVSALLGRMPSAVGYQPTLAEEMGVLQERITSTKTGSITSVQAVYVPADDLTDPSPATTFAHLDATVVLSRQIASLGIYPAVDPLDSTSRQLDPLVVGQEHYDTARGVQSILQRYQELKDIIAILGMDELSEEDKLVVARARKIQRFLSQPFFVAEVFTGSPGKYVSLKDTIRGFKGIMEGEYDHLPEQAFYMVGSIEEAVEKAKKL

## Nc1ncnc2c1ncn2[C@@H]1O[C@H](COP(=O)(O)OP(=O)(O)O)[C@@H](O)[C@H]1O [ADP]
  NADH-driven ATP synthesis in proteoliposomes, luciferase luminescence: the Δp is used by Ec-F1F0 to generate ATP
